Test [1] relates to KB nasopharyngeal carcinoma cells. Briefly: Proliferation assay, KB human tumor cells. Conditions: 96 h, read-out: IC50 KB (+FA). It is filed as cell-based.
The test system of test [2] is PC43–10 CHO cells (human RFC). The test is described as follows: Proliferation assay, RFC-expressing PC43–10 CHO cells. To be noted: PC43-10, 96 h, read-out: IC50 PC43–10 (RFC).
Test [3] has as its system NCI-IGROV1 ovarian cancer cells. The test is described as follows: Proliferation assay, NCI-IGROV1 EOC cells. It is filed as cell-based, human. Conditions: 96 h; for IC50: Homo sapiens.
Test [4] relates to KB human tumor cells. The test is described as follows: Nucleoside/AICA protection of KB cell proliferation. To be noted: AICA 320 μM.
Test [5] has as its system PC43–10 CHO cells (human RFC). To be noted: read-out: IC50 PC43–10 (RFC); 96 h; mean (SE); previously published ref 7, 40; cited from earlier work.
Test [6] deals with KB human tumor cells. To be noted: AICA 320 μM, as previously reported ref 40; cited from earlier work.
Test [7] deals with human AICARFTase/IMP cyclohydrolase (ATIC) (Homo sapiens, UniProt P31939). Briefly: In vitro spectrophotometric AICARFTase. It is filed as biochemical. To be noted: ratio of Ki values.
In test [8] the target is T1, human GARFTase (Homo sapiens, UniProt P22102).
T1 sequence (P22102 808-1010): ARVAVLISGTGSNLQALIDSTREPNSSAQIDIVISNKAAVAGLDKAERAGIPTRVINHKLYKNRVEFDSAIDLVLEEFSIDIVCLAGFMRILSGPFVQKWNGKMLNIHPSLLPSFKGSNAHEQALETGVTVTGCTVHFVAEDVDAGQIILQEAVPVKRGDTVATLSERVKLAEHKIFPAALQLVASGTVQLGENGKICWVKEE
The test is described as follows: In vitro spectrophotometric GARFTase assay with purified enzyme. It is filed as biochemical. To be noted: ratio of Ki values.

In test [9] the test system is NCI-IGROV1 EOC cells. Briefly: Targeted metabolomics. It is filed as cell-based, human. Conditions: 1 μM inhibitor, 48 h; for Increase in ZMP (AICAR) level: relative to control.
The mark [10] stands for this setting: read-out: IC50 NCI-IGROV1 (+FA).
Where [11] appears, read: read-out: IC50 NCI-IGROV1 (RFC/FRα/PCFT).

SMILES strings stand for the structures. Read-outs that look alike come from different tables or passages of the source.

human AICARFTase/IMP cyclohydrolase (ATIC), sequence (P31939 whole entry): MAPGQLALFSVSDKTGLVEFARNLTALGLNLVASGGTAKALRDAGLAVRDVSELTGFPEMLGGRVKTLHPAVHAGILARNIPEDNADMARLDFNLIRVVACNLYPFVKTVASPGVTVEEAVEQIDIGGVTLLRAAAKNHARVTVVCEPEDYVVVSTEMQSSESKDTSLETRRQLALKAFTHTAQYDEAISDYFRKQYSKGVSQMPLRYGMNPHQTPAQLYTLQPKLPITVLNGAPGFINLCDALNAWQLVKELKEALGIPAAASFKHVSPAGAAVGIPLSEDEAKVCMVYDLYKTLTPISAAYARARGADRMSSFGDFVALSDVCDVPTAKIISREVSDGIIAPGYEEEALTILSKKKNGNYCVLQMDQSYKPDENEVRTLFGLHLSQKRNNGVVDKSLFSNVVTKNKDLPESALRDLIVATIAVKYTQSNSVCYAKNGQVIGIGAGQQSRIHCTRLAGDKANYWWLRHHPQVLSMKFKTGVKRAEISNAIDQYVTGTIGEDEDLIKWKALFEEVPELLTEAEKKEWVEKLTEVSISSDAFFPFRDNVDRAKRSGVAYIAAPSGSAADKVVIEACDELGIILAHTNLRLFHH

Turning to `Nc1nc2sc(CCCCc3csc(C(=O)N[C@@H](CCC(=O)O)C(=O)O)c3)cc2c(=O)[nH]1` [Compound 9, (4-(4-(2-amino-4-oxo-3,4-dihydrothieno[2,3-d]pyrimidin-6-yl)butyl)thiophene-2-carbonyl)-L-glutamic acid], the IC50 in [1], in test [2] and in [3] (setting [10]) was above 1000 nM each time.
Consider `Nc1nc2[nH]cc(CCCCc3ccc(C(=O)N[C@@H](CCC(=O)O)C(=O)O)cc3)c2c(=O)[nH]1` [AGF23], for which, in test [4], the “Protection by AICA” value is given as “completely protected”.
For `Nc1nc2sc(CCCCc3ccc(C(=O)N[C@@H](CCC(=O)O)C(=O)O)o3)cc2c(=O)[nH]1` [Compound 4, (5-(4-(2-amino-4-oxo-3,4-dihydrothieno[2,3-d]pyrimidin-6-yl)butyl)furan-2-carbonyl)-L-glutamic acid], the IC50 in test [1], in test [2], in test [3] (setting [10]) and in test [3] (setting [11]) was above 1000 nM throughout.
On to `Nc1nc2sc(CCCCc3ccc(C(=O)N[C@@H](CCC(=O)O)C(=O)O)cc3)cc2c(=O)[nH]1` [Compound 2], for which, in [5], the IC50 was above 1000 nM. Also, in [6], the “Protection by AICA” value is listed as “incomplete protection”.
As for `Nc1nc2sc(CCCc3csc(C(=O)N[C@@H](CCC(=O)O)C(=O)O)c3)cc2c(=O)[nH]1` [Compound 6, (4-(3-(2-amino-4-oxo-3,4-dihydrothieno[2,3-d]pyrimidin-6-yl)propyl)thiophene-2-carbonyl)-L-glutamic acid], the IC50 in test [1], in test [2] and in [3] (setting [10]) was above 1000 nM throughout.
Consider `Nc1nc2sc(CCCCc3cc(C(=O)N[C@@H](CCC(=O)O)C(=O)O)cs3)cc2c(=O)[nH]1` [Compound 8, (5-(4-(2-amino-4-oxo-3,4-dihydrothieno[2,3-d]pyrimidin-6-yl)butyl)thiophene-3-carbonyl)-L-glutamic acid], for which the “Fold decreased AICARFTase Ki over lead compound 2” value in test [7] is ~ 9 fold. In addition, the IC50 in test [1], in [2], in test [3] (setting [10]) and in [3] (setting [11]) was above 1000 nM throughout. Further, the “IC50 NCI-IGROV1 (RFC/FRα/PCFT)” value in test [3] (without folic acid, mean (SE)) was “inert”. The “Fold decreased GARFTase Ki over lead compound 2” value in test [8] was ~ 20 fold.
Take `Nc1nc2sc(CCCc3cc(C(=O)N[C@@H](CCC(=O)O)C(=O)O)cs3)cc2c(=O)[nH]1` [Compound 7, (5-(3-(2-amino-4-oxo-3,4-dihydrothieno[2,3-d]pyrimidin-6-yl)propyl)thiophene-3-carbonyl)-L-glu-tamic acid]: the IC50 in test [1], in test [2] and in test [3] (setting [10]) was above 1000 nM throughout.
As to `Nc1nc2sc(CCCCc3ccc(C(=O)N[C@@H](CCC(=O)O)C(=O)O)s3)cc2c(=O)[nH]1` [Compound 3, (5-(4-(2-amino-4-oxo-3,4-dihydrothieno[2,3-d]pyrimidin-6-yl)butyl)thiophene-2-carbonyl)-L-glutamic acid], the IC50 in test [1], in test [2] and in test [3] (setting [10]) was above 1000 nM in each case. In addition, the “fGAR level, % of control” value in test [9] was ~ 50 % of control. In test [9], the “Increase in ZMP (AICAR) level” value was 2 fold.
As for `Nc1nc2sc(CCCc3ccc(C(=O)N[C@@H](CCC(=O)O)C(=O)O)s3)cc2c(=O)[nH]1` [Compound 5, (5-(3-(2-amino-4-oxo-3,4-dihydrothieno[2,3-d]pyrimidin-6-yl)propyl)thiophene-2-carbonyl)-L-glutamic acid], the IC50 in test [1], in [2] and in test [3] (setting [10]) was above 1000 nM each time. Besides, the “fGAR level, % of control” value in [9] was ~ 75 % of control. Further, in [9], the “Increase in ZMP (AICAR) level” value is 3 fold.

Values taken from publication PMC8058616 (Bioorganic & medicinal chemistry, 2021).
